# Measurements as given in patent US6124306A, “Thioalkyl alpha substituted pyrimidine compounds” (Pharmacia & Upjohn Company, priority 1998, dated 2000).
# What was measured:
# IIIB-WT = test: Antiviral activity in MT4 cells, HIV-1 p24 core antigen quantitation; assay type: cell-based; details: Human immunodeficiency virus 1, IIIB, 96 h, infection 0.001-0.005 TCID50 per cell, p24 antigen at four days post-infection, concentration inhibiting 90% of p24 production
# Description: (§1) Assessment of the antiviral activities of the Compounds 1 and 290 versus the panel of viruses used in these studies was carried out in MT4 cells. Cells were batch infected with the appropriate virus stock at a multiplicity of infection of 0.001-0.005 TCID50 per cell for 2 hours at 37° C. The cells were washed, resuspended in RPMI/FBS and plated in 24 well dishes at a final concentration of 1.5×10^5 cells/ml to which were added 2× drug treatments prepared in RPMI/FBS. All treatment concentrations were tested in duplicate. The final DMSO concentration for all treatments or vehicle control cultures was 0.1%. At four days post-infection culture fluid samples were collected for HIV-1 p24 core antigen quantitation to determine antiviral effects. Linear regression analysis was used to calculate the drug concentration necessary to inhibit 90% (inhibitory concentration 90, IC90) of non-drug treated p24 antigen production.
# MF-delavirdine (P236L) = test: as above; assay type: cell-based; details: Human immunodeficiency virus 1, MT4, 96 h, read-out: MF-delavirdine (P236L) IC90 (μM)
# Description: as §1
SMILES,IC90 (IIIB-WT) [nM],IC90 (MF-delavirdine (P236L)) [µM]
CSc1cc(N)nc(S[C@@H](C)c2cc3ccoc3cn2)n1 [Compound #1],8,0.02
"CSc1cc(N)nc(S[C@@H](C)c2cc3c(C)coc3cn2)n1 [Compound #290, (S)-(-)-4-Amino-6-methylthio-2-(1-(3-methylfuro[2,3-c]pyridine-5-yl)ethyl)thio-pyrimidine]",4,0.02
